Calls of active or inactive are those of the source. The rule behind the calls is not given here.
What was measured:
HaCaT = assay: Cytotoxicity against human HaCaT cells assessed as reduction in cell viability after 24 hrs by MTT assay; format: cell-based
DU-145 = assay: Cytotoxicity against human DU145 cells assessed as reduction in cell viability after 24 hrs by MTT assay; format: cell-based; details: DU-145, 24 h
MCF7 = assay: Cytotoxicity against human MCF7 cells assessed as reduction in cell viability after 24 hrs by MTT assay; format: cell-based; details: MCF7, 24 h
[1] = molecular target: T1, Tyrosine-protein phosphatase non-receptor type 1 (Homo sapiens, UniProt P18031); assay: Inhibition of human recombinant PTP1B catalytic domain expressed in Escherichia coli strain BL21(DE3) using […] as substrate
T1 sequence (P18031 whole entry): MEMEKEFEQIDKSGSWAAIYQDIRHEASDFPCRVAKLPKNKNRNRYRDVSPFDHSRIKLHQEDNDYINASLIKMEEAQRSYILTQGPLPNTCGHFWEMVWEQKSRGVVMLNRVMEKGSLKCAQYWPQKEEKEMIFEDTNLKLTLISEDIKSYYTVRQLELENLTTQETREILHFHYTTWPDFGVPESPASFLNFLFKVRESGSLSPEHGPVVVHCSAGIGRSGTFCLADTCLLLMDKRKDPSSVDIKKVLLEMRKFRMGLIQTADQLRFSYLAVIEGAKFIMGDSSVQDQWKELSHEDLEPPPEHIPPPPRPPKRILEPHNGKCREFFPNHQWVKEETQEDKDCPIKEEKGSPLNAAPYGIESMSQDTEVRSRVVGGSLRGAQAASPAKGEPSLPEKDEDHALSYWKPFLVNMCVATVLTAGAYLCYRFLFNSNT

[2] = molecular target: Dual specificity tyrosine-phosphorylation-regulated kinase 1A (Homo sapiens) (UniProt Q13627); assay: Inhibition of GST-fused human recombinant DYRK1A expressed in Escherichia coli using woodtide as substrate after 30 mins in presence of [gamma-33P]ATP by liquid scintillation counting

IC50 [1]	inhibition [2]	Compound	IC50 (HaCaT)	IC50 (DU-145)	IC50 (MCF7)
28 µM	inactive	O=C(O)CNC(=O)CCCCCC[C@H](O)CCCO	> 10 µM	> 10 µM	> 10 µM
11 µM	inactive	CCCCCCCCCCCCCC[C@@H](OP(=O)(O)O)[C@@H](O)CC[C@@H](O)[C@@H](O)CC[C@@H](O)CCCCCCC(=O)NCC(=O)O	> 10 µM	> 10 µM	> 10 µM
24 µM	inactive	CCCCCCCCCCCCCC[C@@H](OP(=O)(O)O)[C@@H](O)CCCO	> 10 µM	> 10 µM	> 10 µM
